Values quoted from earlier work, collected in patent publication US20050058718A1, “Preparations for cigarette toxicity reduction, health enhancement, and addiction elimination” (priority 2003, published 2005).

Tests used:
cancer cells = cancer cells external of the human body treated by selenium
[1] = tested on: leukoderma in their mouths and throats; settings: 3 ppm selenium in drinking water
[2] = 1300 people, 200 ug selenium daily for five years

Structure (SMILES): [Se] [selenium]
- decrease of carcinogenicity of cancer cells (cancer cells): 60%
- reduction of large intestine and rectum cancer incidence (cancer incidence; [2]): 58%
- reduction of lung cancer incidence (cancer incidence; [2]): 46%
- reduction of prostate cancer incidence (cancer incidence; [2]): 63%
- more chance to survive when sick from cancer (cancer incidence; selenium takers sick from cancer): 50%
- delay of cancer formation versus control group [1]: two more weeks
